Source: paper PMC5216056 (Nature Communications, 2017)
Read-outs that look alike come from different tables or passages of the source.

What was measured:
[1] = biological target: hCB2R (Homo sapiens, UniProt P34972); set-up: expressed in transfected cells; host or cells: Flp-In-293 (Invitrogen #R750-07), pcDNA5/FRT
[2] = biological target: T1, hCB1R (Homo sapiens, UniProt P21554); assay: biochemical; assay type: biochemical; details: read-out: Emax ± SEM GTPγS hCB1R
T1 construct: host or cells: CHO

[3] = biological target: T2, Rat recombinant TRPV4 (Rattus norvegicus, UniProt Q9ERZ8); assay: cell-based; assay type: cell-based
T2 construct: expressed in transfected cells; host or cells: HEK293 (TRPV4-HEK-293, gift from HB Bradshaw, Indiana University)

[4] = biological target: T3, Rat recombinant TRPM8 (Rattus norvegicus, UniProt Q8R455); assay: TRP channel [Ca2+]i assay; assay type: cell-based; details: icilin concentration not given; read-out: TRPM8 IC50 for antagonism of icilin
T3 construct: expressed in transfected cells; host or cells: HEK293 (TRPM8-HEK-293, gift from Mario van der Stelt)

[5] = biological target: T4, Rat recombinant TRPV3 (Rattus norvegicus, UniProt Q4QYD9); assay: cell-based; assay type: cell-based
T4 construct: expressed in transfected cells; host or cells: HEK293 (TRPV3-HEK-293, gift from HB Bradshaw, Indiana University)
T4 sequence (Q4QYD9 1-791): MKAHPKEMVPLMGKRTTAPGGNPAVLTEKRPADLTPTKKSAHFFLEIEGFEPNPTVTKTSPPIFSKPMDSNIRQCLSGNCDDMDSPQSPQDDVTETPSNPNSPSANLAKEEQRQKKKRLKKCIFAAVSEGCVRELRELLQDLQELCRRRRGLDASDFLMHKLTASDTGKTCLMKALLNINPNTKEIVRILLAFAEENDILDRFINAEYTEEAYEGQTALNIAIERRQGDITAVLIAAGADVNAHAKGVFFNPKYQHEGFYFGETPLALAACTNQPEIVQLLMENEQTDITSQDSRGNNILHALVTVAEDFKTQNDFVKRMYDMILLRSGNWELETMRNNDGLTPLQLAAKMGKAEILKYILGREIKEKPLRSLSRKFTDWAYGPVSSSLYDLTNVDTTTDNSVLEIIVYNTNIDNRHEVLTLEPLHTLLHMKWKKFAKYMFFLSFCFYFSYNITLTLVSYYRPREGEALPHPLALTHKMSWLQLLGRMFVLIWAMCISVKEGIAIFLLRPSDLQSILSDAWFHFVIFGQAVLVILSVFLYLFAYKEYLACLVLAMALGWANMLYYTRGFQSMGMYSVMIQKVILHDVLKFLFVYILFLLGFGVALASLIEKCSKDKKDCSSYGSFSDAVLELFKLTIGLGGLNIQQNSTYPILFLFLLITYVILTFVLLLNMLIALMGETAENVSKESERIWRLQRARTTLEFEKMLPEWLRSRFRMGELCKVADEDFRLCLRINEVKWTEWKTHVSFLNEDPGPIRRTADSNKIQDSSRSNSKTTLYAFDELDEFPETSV

[6] = biological target: T1, hCB1R; assay: cell-based; assay type: cell-based; details: read-out: Emax ± SEM β-AR recruitment hCB1R
[7] = tested on: BZD (central); assay type: binding; details: 10 µM

T1 sequence (P21554 whole entry): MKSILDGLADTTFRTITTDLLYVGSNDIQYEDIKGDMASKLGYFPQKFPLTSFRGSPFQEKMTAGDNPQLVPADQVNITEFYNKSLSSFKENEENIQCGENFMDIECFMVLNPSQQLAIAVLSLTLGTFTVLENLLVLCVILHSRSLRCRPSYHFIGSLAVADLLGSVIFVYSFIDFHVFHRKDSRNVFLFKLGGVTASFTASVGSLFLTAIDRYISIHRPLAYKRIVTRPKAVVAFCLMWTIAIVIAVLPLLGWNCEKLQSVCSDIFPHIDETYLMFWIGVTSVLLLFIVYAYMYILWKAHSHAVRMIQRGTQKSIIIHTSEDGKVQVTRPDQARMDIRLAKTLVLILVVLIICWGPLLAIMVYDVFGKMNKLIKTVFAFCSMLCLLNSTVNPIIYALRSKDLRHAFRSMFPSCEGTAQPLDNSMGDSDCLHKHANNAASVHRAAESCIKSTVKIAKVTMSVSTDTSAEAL
Chain of hCB2R (P34972 whole entry): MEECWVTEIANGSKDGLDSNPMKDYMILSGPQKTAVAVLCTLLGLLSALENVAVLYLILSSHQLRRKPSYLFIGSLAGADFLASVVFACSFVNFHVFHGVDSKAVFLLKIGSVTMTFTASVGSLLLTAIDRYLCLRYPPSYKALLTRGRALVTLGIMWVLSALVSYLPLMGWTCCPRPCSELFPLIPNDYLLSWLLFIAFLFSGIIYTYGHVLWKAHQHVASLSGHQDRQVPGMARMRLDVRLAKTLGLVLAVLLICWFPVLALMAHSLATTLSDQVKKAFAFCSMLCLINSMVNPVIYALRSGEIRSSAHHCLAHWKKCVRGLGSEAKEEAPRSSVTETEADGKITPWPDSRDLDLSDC
T2 sequence (Q9ERZ8 whole entry): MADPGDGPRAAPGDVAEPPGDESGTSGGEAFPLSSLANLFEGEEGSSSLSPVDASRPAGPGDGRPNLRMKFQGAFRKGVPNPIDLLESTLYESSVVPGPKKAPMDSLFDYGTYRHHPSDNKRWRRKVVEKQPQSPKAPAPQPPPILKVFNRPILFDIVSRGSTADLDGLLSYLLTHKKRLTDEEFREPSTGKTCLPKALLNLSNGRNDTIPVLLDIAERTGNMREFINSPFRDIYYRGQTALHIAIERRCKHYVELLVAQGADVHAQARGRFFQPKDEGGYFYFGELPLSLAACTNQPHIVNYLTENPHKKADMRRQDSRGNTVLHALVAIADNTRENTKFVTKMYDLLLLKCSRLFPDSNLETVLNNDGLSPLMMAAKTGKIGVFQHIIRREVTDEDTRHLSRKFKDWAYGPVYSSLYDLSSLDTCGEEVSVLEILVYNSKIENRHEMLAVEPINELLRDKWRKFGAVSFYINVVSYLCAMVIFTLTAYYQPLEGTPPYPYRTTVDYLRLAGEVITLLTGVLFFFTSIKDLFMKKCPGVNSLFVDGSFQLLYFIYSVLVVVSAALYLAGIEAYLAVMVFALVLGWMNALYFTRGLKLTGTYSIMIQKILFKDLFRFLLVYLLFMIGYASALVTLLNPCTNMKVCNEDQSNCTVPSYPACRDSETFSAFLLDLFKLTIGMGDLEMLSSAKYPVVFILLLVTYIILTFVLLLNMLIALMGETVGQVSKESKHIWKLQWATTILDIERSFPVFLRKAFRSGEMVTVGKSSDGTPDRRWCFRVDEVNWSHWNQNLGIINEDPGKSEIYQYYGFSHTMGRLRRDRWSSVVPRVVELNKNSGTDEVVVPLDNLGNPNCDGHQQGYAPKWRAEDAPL
T3 sequence (Q8R455 whole entry): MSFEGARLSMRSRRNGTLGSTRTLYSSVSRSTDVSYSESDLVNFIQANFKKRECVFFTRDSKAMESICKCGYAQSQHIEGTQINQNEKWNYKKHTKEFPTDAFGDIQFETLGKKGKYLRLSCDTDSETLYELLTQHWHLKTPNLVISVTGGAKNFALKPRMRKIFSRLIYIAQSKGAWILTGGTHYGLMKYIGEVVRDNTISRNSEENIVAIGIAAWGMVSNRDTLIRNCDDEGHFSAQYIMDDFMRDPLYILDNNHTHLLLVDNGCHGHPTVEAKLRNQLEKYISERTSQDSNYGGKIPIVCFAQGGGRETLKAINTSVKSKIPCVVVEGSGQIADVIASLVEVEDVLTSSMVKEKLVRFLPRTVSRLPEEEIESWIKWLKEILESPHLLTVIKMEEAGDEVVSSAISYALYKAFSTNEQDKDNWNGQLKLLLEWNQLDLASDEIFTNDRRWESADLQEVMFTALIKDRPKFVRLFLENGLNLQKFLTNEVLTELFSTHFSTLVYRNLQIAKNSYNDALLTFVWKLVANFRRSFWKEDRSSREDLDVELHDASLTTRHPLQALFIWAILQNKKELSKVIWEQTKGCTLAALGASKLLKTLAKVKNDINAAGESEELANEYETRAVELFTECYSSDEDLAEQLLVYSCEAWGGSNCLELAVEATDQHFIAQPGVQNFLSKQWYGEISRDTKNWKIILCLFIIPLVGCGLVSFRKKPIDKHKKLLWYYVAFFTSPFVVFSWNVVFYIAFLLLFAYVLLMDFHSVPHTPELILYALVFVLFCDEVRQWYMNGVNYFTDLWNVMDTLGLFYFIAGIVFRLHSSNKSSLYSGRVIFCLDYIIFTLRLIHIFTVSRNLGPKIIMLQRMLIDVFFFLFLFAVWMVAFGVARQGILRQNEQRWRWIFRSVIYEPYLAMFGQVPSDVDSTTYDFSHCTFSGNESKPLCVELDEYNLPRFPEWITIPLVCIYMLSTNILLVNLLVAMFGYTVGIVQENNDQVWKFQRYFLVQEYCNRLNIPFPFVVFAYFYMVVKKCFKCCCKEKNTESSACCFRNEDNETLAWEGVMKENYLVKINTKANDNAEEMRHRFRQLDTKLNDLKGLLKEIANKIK

Question: For `CCCCC/C=C\C/C=C\C/C=C\C/C=C\CCCC(=O)OC(CO)CO` [2-AG, 2-arachidonoyl glycerol], which “GIRK-GTPγS bias factor (BF)” value ([1]; hCB2R) is on record?
Answer: 154.53

Question: What about the “GIRK-GTPγS ΔΔlogR” value ([1]; hCB2R) of the same compound?
Answer: 2.19 ± 0.44

Question: And the “GIRK-cAMP bias factor (BF)” value ([1]; hCB2R)?
Answer: 178.65

Question: And the “GIRK-cAMP ΔΔlogR” value ([1]; hCB2R)?
Answer: 2.25 ± 0.21

Question: And the “GTPγS-cAMP bias factor (BF)” value ([1]; hCB2R)?
Answer: 1.16

Question: What about the “GTPγS-cAMP ΔΔlogR” value ([1]; hCB2R) of the same compound?
Answer: 0.06 ± 0.46

Question: And the “LogR GIRK” value ([1]; hCB2R)?
Answer: 6.40

Question: And the “LogR GTPγS” value ([1]; hCB2R)?
Answer: 4.63

Question: And the “LogR cAMP” value ([1]; hCB2R)?
Answer: 6.99

Question: And the “LogR pERK” value ([1]; hCB2R)?
Answer: 6.37

Question: And the “LogR β-AR” value ([1]; hCB2R)?
Answer: 5.9

Question: What about the “pERK-GIRK bias factor (BF)” value ([1]; hCB2R) of the same compound?
Answer: 0.06

Question: What about the “pERK-GIRK ΔΔlogR” value ([1]; hCB2R) of the same compound?
Answer: -1.2 ± 0.29

Question: What about the “pERK-GTPγS bias factor (BF)” value ([1]; hCB2R) of the same compound?
Answer: 9.68

Question: What about the “pERK-GTPγS ΔΔlogR” value ([1]; hCB2R) of the same compound?
Answer: 0.99 ± 0.5

Question: What about the “pERK-cAMP bias factor (BF)” value ([1]; hCB2R) of the same compound?
Answer: 11.19

Question: And the “pERK-cAMP ΔΔlogR” value ([1]; hCB2R)?
Answer: 1.05 ± 0.31

Question: And the “β-AR-GIRK bias factor (BF)” value ([1]; hCB2R)?
Answer: 0.07

Question: And the “β-AR-GIRK ΔΔlogR” value ([1]; hCB2R)?
Answer: -1.14 ± 0.19

Question: What about the “β-AR-GTPγS bias factor (BF)” value ([1]; hCB2R) of the same compound?
Answer: 11.27

Question: What about the “β-AR-GTPγS ΔΔlogR” value ([1]; hCB2R) of the same compound?
Answer: 1.05 ± 0.45

Question: What about the “β-AR-cAMP bias factor (BF)” value ([1]; hCB2R) of the same compound?
Answer: 13.03

Question: What about the “β-AR-cAMP ΔΔlogR” value ([1]; hCB2R) of the same compound?
Answer: 1.12 ± 0.23

Question: And the “β-AR-pERK bias factor (BF)” value ([1]; hCB2R)?
Answer: 1.16

Question: And the “β-AR-pERK ΔΔlogR” value ([1]; hCB2R)?
Answer: 0.07 ± 0.3

Question: What about the “ΔLogR GIRK” value ([1]; hCB2R, reference CP55940) of the same compound?
Answer: -1.47

Question: What about the “ΔLogR GTPγS” value ([1]; hCB2R, reference CP55940) of the same compound?
Answer: -3.65

Question: And the “ΔLogR cAMP” value ([1]; hCB2R, reference CP55940)?
Answer: -3.72

Question: What about the “ΔLogR pERK” value ([1]; hCB2R, reference CP55940) of the same compound?
Answer: -2.67

Question: And the “ΔLogR β-AR” value ([1]; hCB2R, reference CP55940)?
Answer: -2.6

Question: And the “RE GIRK” value ([1]; hCB2R, relative effectiveness)?
Answer: 0.03

Question: And the “RE GTPγS” value ([1]; hCB2R, relative effectiveness)?
Answer: 0.0002

Question: What about the “RE cAMP” value ([1]; hCB2R, relative effectiveness) of the same compound?
Answer: 0.0002

Question: And the “RE pERK” value ([1]; hCB2R, relative effectiveness)?
Answer: 0.002

Question: And the “RE β-AR” value ([1]; hCB2R, relative effectiveness)?
Answer: 0.003

Question: What about the Emax [2] of the same compound?
Answer: 71 ± 20%

Question: Which results are given for `CCCCC/C=C\C/C=C\C/C=C\C/C=C\CCCC(=O)NCCO` [Anandamide, N-arachidonoylethanolamine]?
Answer: GIRK-GTPγS bias factor (BF) ([1]; hCB2R): 2.57; GIRK-GTPγS ΔΔlogR ([1]; hCB2R): 0.41 ± 0.65; GIRK-cAMP bias factor (BF) ([1]; hCB2R): 26.36; GIRK-cAMP ΔΔlogR ([1]; hCB2R): 1.42 ± 0.34; GTPγS-cAMP bias factor (BF) ([1]; hCB2R): 10.26; GTPγS-cAMP ΔΔlogR ([1]; hCB2R): 1.01 ± 0.41; LogR GIRK ([1]; hCB2R): 4.53; LogR GTPγS ([1]; hCB2R): 4.54; LogR cAMP ([1]; hCB2R): 5.96; LogR pERK ([1]; hCB2R): 6.03; LogR β-AR ([1]; hCB2R): 5.54; pERK-GIRK bias factor (BF) ([1]; hCB2R): 2.14; pERK-GIRK ΔΔlogR ([1]; hCB2R): 0.33 ± 0.43; pERK-GTPγS bias factor (BF) ([1]; hCB2R): 5.50; pERK-GTPγS ΔΔlogR ([1]; hCB2R): 0.74 ± 0.66; pERK-cAMP bias factor (BF) ([1]; hCB2R): 56.36; pERK-cAMP ΔΔlogR ([1]; hCB2R): 1.75 ± 0.37; β-AR-GIRK bias factor (BF) ([1]; hCB2R): 2.37; β-AR-GIRK ΔΔlogR ([1]; hCB2R): 0.38 ± 0.37; β-AR-GTPγS bias factor (BF) ([1]; hCB2R): 6.10; β-AR-GTPγS ΔΔlogR ([1]; hCB2R): 0.79 ± 0.62; β-AR-cAMP bias factor (BF) ([1]; hCB2R): 62.52; β-AR-cAMP ΔΔlogR ([1]; hCB2R): 1.80 ± 0.29; β-AR-pERK bias factor (BF) ([1]; hCB2R): 1.11; β-AR-pERK ΔΔlogR ([1]; hCB2R): 0.04 ± 0.39; ΔLogR GIRK ([1]; hCB2R, reference CP55940): -3.33; ΔLogR GTPγS ([1]; hCB2R, reference CP55940): -3.74; ΔLogR cAMP ([1]; hCB2R, reference CP55940): -4.76; ΔLogR pERK ([1]; hCB2R, reference CP55940): -3 ± 0.32; ΔLogR β-AR ([1]; hCB2R, reference CP55940): -2.96; RE GIRK ([1]; hCB2R, relative effectiveness): 0.005; RE GTPγS ([1]; hCB2R, relative effectiveness): 0.0002; RE cAMP ([1]; hCB2R, relative effectiveness): 0.00002; RE pERK ([1]; hCB2R, relative effectiveness): 0.001; RE β-AR ([1]; hCB2R, relative effectiveness): 0.001

Question: For `Cc1c(C(=O)NN2CCCCC2)nn(-c2ccc(Cl)cc2Cl)c1-c1ccc(Cl)cc1` [SR141716A], which “TRPV4 Efficacy (% ionomycin 4μM)” value [3] is on record?
Answer: < 10%

Question: And the IC50 ([3]; vs 4αPDD 1μM, read-out: TRPV4 IC50 for desensitization)?
Answer: 2 ± 0.1 µM

Question: What about the IC50 [4] of the same compound?
Answer: 0.041 ± 0.0109 µM

Question: What about the “TRPV3 Efficacy (% ionomycin 4μM)” value [5] of the same compound?
Answer: 38.9%

Question: What about the EC50 ([5]; read-out: TRPV3 Potency EC50) of the same compound?
Answer: 0.85 µM

Question: What about the IC50 ([5]; vs thymol 100μM, read-out: TRPV3 IC50 for antagonism or desensitization) of the same compound?
Answer: 3.4 ± 0.4 µM

Question: What does the source list for `CCCCCCC(C)(C)c1ccc([C@@H]2C[C@H](O)CC[C@H]2CCCO)c(O)c1` [CP55940]?
Answer: Emax [6]: 94 ± 2%; % inhibition BZD (central) [7]: -9%; GIRK-GTPγS bias factor (BF) [1]: 1.00; GIRK-GTPγS ΔΔlogR [1]: 0 ± 0.34; GIRK-cAMP bias factor (BF) [1]: 1.00; GIRK-cAMP ΔΔlogR [1]: 0 ± 0.12; GTPγS-cAMP bias factor (BF) [1]: 1.00; GTPγS-cAMP ΔΔlogR [1]: 0 ± 0.34; LogR GIRK [1]: 7.863; RE GIRK [1]: 1.00; RE GTPγS [1]: 1.00; RE cAMP [1]: 1.00; RE pERK [1]: 1.00; RE β-AR [1]: 1.00; pERK-GIRK bias factor (BF) [1]: 1.00; pERK-GIRK ΔΔlogR [1]: 0 ± 0.25; pERK-GTPγS bias factor (BF) [1]: 1.00; pERK-GTPγS ΔΔlogR [1]: 0 ± 0.41; pERK-cAMP bias factor (BF) [1]: 1.00; pERK-cAMP ΔΔlogR [1]: 0 ± 0.26; ΔLogR GIRK [1]: 0 ± 0.07; ΔLogR GTPγS [1]: 0 ± 0.33; ΔLogR cAMP [1]: 0 ± 0.09; ΔLogR pERK [1]: 0 ± 0.24; ΔLogR β-AR [1]: 0 ± 0.07; β-AR-GIRK bias factor (BF) [1]: 1.00; β-AR-GIRK ΔΔlogR [1]: 0 ± 0.1; β-AR-GTPγS bias factor (BF) [1]: 1.00; β-AR-GTPγS ΔΔlogR [1]: 0 ± 0.34; β-AR-cAMP bias factor (BF) [1]: 1.00; β-AR-cAMP ΔΔlogR [1]: 0 ± 0.12; β-AR-pERK bias factor (BF) [1]: 1.00; β-AR-pERK ΔΔlogR [1]: 0 ± 0.25; Emax [2]: 92 ± 5%
